Tests used:
AChE = AChE (Homo sapiens, UniProt P22303); format: biochemical; conditions: for IC50: Ellman method, saturating substrate (acetylthiocholine), absorbance at 412 nm; for Selectivity IC50 (BuChE)/IC50 (AchE): ratio of IC50 (BuChE) to IC50 (AChE), preference for AChE over BuChE
BuChE = BuChE (Homo sapiens, UniProt P06276); assay: biochemical; format: biochemical; conditions: Ellman method, saturating substrate, absorbance at 412 nm
Sequence of BuChE (P06276 29-602): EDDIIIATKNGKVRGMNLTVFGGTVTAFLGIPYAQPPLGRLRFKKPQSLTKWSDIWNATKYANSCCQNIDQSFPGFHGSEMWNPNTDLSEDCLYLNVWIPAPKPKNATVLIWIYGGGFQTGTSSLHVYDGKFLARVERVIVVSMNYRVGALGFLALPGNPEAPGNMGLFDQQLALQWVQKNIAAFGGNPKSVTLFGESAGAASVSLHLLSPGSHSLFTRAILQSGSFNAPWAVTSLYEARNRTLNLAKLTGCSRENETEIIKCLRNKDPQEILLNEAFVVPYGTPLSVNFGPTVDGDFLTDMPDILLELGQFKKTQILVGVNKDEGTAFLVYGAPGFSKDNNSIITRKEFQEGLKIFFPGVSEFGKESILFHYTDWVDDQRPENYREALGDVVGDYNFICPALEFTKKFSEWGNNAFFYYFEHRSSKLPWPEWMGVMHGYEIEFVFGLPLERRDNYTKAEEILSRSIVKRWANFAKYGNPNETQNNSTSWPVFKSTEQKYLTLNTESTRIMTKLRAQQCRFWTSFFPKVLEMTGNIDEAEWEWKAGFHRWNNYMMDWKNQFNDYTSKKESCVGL

Sequence of AChE (P22303 32-614): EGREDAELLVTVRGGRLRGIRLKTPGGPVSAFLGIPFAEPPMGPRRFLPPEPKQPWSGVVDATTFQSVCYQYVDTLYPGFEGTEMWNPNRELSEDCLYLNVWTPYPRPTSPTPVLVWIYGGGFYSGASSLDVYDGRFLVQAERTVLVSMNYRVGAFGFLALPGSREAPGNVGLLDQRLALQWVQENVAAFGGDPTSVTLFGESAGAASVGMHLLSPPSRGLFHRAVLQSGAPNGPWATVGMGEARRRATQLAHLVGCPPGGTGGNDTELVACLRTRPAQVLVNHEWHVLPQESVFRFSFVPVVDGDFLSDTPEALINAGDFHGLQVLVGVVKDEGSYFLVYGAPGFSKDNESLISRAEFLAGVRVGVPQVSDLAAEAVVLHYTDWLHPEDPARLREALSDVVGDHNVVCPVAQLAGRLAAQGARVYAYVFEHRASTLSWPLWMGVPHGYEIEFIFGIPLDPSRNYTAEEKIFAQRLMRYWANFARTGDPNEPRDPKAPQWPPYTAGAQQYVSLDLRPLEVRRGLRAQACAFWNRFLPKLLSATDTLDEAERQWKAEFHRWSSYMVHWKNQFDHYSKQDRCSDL

Row | Compound | IC50 (AChE) | Selectivity IC50 (BuChE)/IC50 (AchE) (AChE) | IC50 (BuChE)
1 | CCN(CCCCCCNC1=C(F)C(=O)C(NCCCCCCN(CC)Cc2ccccc2OC)=C(F)C1=O)Cc1ccccc1OC [Compound 35, 2,5-bis-{6-[ethyl-(2-methoxy-benzyl)-amine]-hexylamine}-3,6-difluorine-[1,4]benzoquinone] | 5.17 ± 0.17 nM | 294 | 1520 ± 90 nM
2 | CCN(CCCCCCNC1=C(Br)C(=O)C(NCCCCCCN(CC)Cc2ccccc2OC)=C(Br)C1=O)Cc1ccccc1OC [Compound 36, 2,5-bis-{6-[ethyl-(2-methoxy-benzyl)-amine]-hexylamine}-3,6-dibromine-[1,4]benzoquinone] | 2.66 ± 0.19 nM | 300 | 800 ± 62 nM

— patent US20090093521A1, “2, 5-Bis-Diamine [1,4] Benzoquinone-Derivatives” (priority 2005, published 2009)
